Numbered stars: 1 amine (or outer) side, 2 acyl side, 3 side chain; on linkers, the order of the positions; unused ones are H or OH. Bridge positions count the residues as written; N and C are the ends. Square brackets hold non-standard residues; d marks the D form. Ends that are not written are not given here. Peptide text beside a SMILES is read from it. * marks the point of attachment. Leu(3R-OH,Nα-propionyl) = CCC(=O)N[C@H](C(=O)*)[C@H](O)C(C)C; X1 = CC(C)[C@@H](O[*:3])[C@H](N[*:1])C(=O)[*:2]; NMeT = CN[C@H](C(=O)O)[C@@H](C)O; dPhLac = O=C(O)[C@H](O)Cc1ccccc1; NMeA = CN[C@@H](C)C(=O)O; NMeDha = C=C(NC)C(=O)O
Key:
[1] = test system: growth hormone secretagogue receptor/ghrelin (GHS-R) receptor; experiment: Fura-2 Ca2+ imaging in intact pancreatic islets (ghrelin); type: cell-based, mouse; settings: 300 nM ghrelin
[2] = test system: muscarinic acetylcholine receptors; experiment: Fura-2 Ca2+ imaging in intact pancreatic islets (carbachol positive control); type: cell-based, mouse; settings: 100 µM carbachol, fura-2 ratio F340/F380
Procedure: (§1) Fura-2-based Ca^2+ imaging was performed in transfected HEK293T cells (Supplementary Experimental Procedures) and intact pancreatic islets using a monochromator-based imaging system, and the imaging software TILLvisION 4.0 (T.I.L.L. Photonics). Emitted fluorescence (excited at 340 and 380 nm) was acquired at intervals of 2 seconds and corrected for background fluorescence. HEK293T cells and islets were loaded with 5 µM fura-2 AM in standard bath solution containing 140 mM NaCl, 10 mM HEPES, 5 mM KCl, 2 mM CaCl2, 1 mM MgCl2, and 3 mM glucose for 30 or 60 min. HEK293T cells (25,000 cells/well) were seeded into 24-well plates on poly-L-lysine coated glass cover slips and were transiently transfected with plasmids encoding for GPR116 and GFP the next day. Ca^2+ imaging was carried out 72 h post transfection. HEK293T cells were exposed to p116sc, p116 (1 mM each), and ATP (100 µM) in standard bath solution. Pancreatic mouse islets (3 - 4 islets per coverslip) were transferred one day after preparation into 12-well plates on poly-L-lysine coated glass cover slips. 48 h after seeding islets were exposed to 1 mM p116sc, 1 mM p116, and 100 µM carbachol (CCh) in standard bath solution.

[3] = test system: mock-transfected HEK293T cells; experiment: Fura-2 Ca2+ imaging in mock-transfected HEK293T cells; type: cell-based; settings: 1 mM peptide or 100 µM ATP
Procedure: as §1

[4] = test system: endogenous purinergic receptors; experiment: Fura-2 Ca2+ imaging in HEK293T cells (ATP control); type: cell-based; settings: 100 µM ATP
Procedure: as §1

[5] = test system: Gαq/11 protein; experiment: Somatostatin secretion from islets after pre-incubation with Gq inhibitor; type: cell-based, mouse; settings: pre-incubation with FR900359, then 2 mM p116, high glucose, 30 min
Procedure: Equilibration of five islets was performed in KRB containing 2.8 mM glucose for 30 min at 37 °C in 96-well plates. If not mentioned otherwise, islets were stimulated with peptide solution or respective controls in KRB for 30 min at 37 °C. Islets were lysed with acid ethanol and supernatant as well as lysates kept frozen at −20 °C until measurement. To measure insulin the AlphaLISA technology (Perkin Elmer) was used according to the manufacturer’s protocol in 384-well OptiPlate microplates (Perkin Elmer) with the EnVision Multilabel Reader (Perkin Elmer). Somatostatin amounts were determined using either AlphaLISA (Perkin Elmer) or ELISA (Phoenix Pharmaceuticals). For reliable measurement protocol adaptions were necessary. For AlphaLISA these were as follows: increasing sample volumes to 35 µl/well, reduced bead volume of 5 µl/well, and an extended incubation period with donor beads of 90 min. For the ELISA measurement the sample incubation time was extended to over-night and the biotinylated peptide was diluted 1:5 to achieve reliable results.

ghrelin (GSSFLSPEHQRVQQRKESKKPPAKLQP; ends and bridges not checked; UniProt Q9UBU3 24-50, looked up)
Ca2+ response in insulin-expressing beta cells of islets ([1]; MIP-GFP mouse islets, EGFP-positive regions): absent in insulin-expressing beta cells
Ca2+ response in pancreatic islets ([1]; then 1 mM p116, MIP-GFP mouse islets): elicited Ca^2+ signals with partially overlapping localization

C[N+](C)(C)CCOC(N)=O [CCh, carbachol]
Ca2+ response in pancreatic islets [2]: strong Ca^2+ elevation

Nc1ncnc2c1ncn2[C@@H]1O[C@H](COP(=O)(O)OP(=O)(O)OP(=O)(O)O)[C@@H](O)[C@H]1O [ATP]
intracellular Ca2+ response in mock-transfected cells [3]: strongly increased intracellular Ca2+ levels
intracellular Ca2+ transients in GPR116-transfected HEK293T cells [4]: induced

C=C1C(=O)N[C@@H](C)C(=O)N(C)[C@@H](C)C(=O)N[C@@H]([C@H](OC(=O)[C@@H](NC(=O)CC)[C@H](O)C(C)C)C(C)C)C(=O)N(C)[C@@H]([C@@H](C)OC)C(=O)O[C@H](C(C)C)[C@H](NC(C)=O)C(=O)O[C@H](Cc2ccccc2)C(=O)N1C [FR900359] (Ac-[X1][dPhLac][NMeDha]A[NMeA][X1](Leu(3R-OH,Nα-propionyl))[NMeT](Me); ester 1-C)
effect of Gq inhibitor on p116-induced somatostatin secretion [5]: completely abolished somatostatin secretion

Reference: PMC10791652, “The adhesion GPCR GPR116/ADGRF5 has a dual function in pancreatic islets regulating somatostatin release and islet development” (Communications Biology, 2024)
